Experimental data as given in ChEMBL document CHEMBL1201862, “PubChem BioAssay data set” (2004).
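Results reflect a 48-hour exposure of cells in 96-well plates to compound at five concentrations. At the GI50, growth is halved.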 The source made the active and inactive calls. No stated cut-off is given here; in the data, active = GI50 up to about 1.1 µM and inactive = higher.

Experiments:
Assay in all cases: NCI anticancer screen, dose series, 48 h
786-0 = tested on: 786-0
A498 = tested on: A498
A549 = tested on: A549
ACHN = tested on: ACHN
BT-549 = tested on: BT-549
CAKI-1 = tested on: CAKI-1
CCRF-CEM = tested on: CCRF-CEM
COLO 205 = tested on: COLO 205
DU-145 = tested on: DU-145
EKVX = tested on: EKVX
HCC 2998 = tested on: HCC 2998
HCT-116 = tested on: HCT-116
HCT-15 = tested on: HCT-15
HL-60 = tested on: HL-60
HOP-62 = tested on: HOP-62
HOP-92 = tested on: HOP-92
HT-29 = tested on: HT-29
Hs-578T = tested on: Hs-578T
IGROV-1 = tested on: IGROV-1
K562 = tested on: K562
KM12 = tested on: KM12
LOX IMVI = tested on: LOX IMVI
M14 = tested on: M14
MCF7 = tested on: MCF7
MDA-MB-231 = tested on: MDA-MB-231
MDA-MB-435 = tested on: MDA-MB-435
MDA-N = tested on: MDA-N
MOLT-4 = tested on: MOLT-4
Malme-3M = tested on: Malme-3M
NCI-H226 = tested on: NCI-H226
NCI-H23 = tested on: NCI-H23
NCI-H460 = tested on: NCI-H460
NCI/ADR-RES = tested on: NCI/ADR-RES
OVCAR-3 = tested on: OVCAR-3
OVCAR-4 = tested on: OVCAR-4
OVCAR-5 = tested on: OVCAR-5
OVCAR-8 = tested on: OVCAR-8
PC-3 = tested on: PC-3
RPMI-8226 = tested on: RPMI-8226
SF-268 = tested on: SF-268
SF-295 = tested on: SF-295
SF-539 = tested on: SF-539
SK-MEL-28 = tested on: SK-MEL-28
SK-MEL-2 = tested on: SK-MEL-2
SK-MEL-5 = tested on: SK-MEL-5
SK-OV-3 = tested on: SK-OV-3
SN12C = tested on: SN12C
SNB-19 = tested on: SNB-19
SNB-75 = tested on: SNB-75
SR = tested on: SR
SW-620 = tested on: SW-620
T47D = tested on: T47D
TK-10 = tested on: TK-10
U-251 = tested on: U-251
UACC-257 = tested on: UACC-257
UACC-62 = tested on: UACC-62
UO-31 = tested on: UO-31
NCI-H522 = tested on: NCI-H522

Measured: GI50

CN(C)CC1CCC/C(=C\c2ccc(OC(=O)c3ccc(Cl)cc3)cc2)C1=O (stereo not given)
1.57 µM: HCT-15
active: 786-0 0.867 µM | CCRF-CEM 0.33 µM | HCT-116 0.832 µM | K562 0.912 µM | LOX IMVI 0.493 µM | MCF7 0.33 µM | MOLT-4 0.661 µM | RPMI-8226 0.465 µM | SR 0.583 µM | SW-620 1.1 µM | T47D 0.757 µM
inactive: A498 7.26 µM | A549 2.38 µM | ACHN 3.57 µM | BT-549 2.81 µM | CAKI-1 2.19 µM | COLO 205 1.97 µM | DU-145 2.39 µM | EKVX 2.34 µM | HCC 2998 9.95 µM | HL-60 1.32 µM | HOP-62 3.99 µM | HOP-92 2.07 µM | HT-29 1.95 µM | Hs-578T 2.57 µM | IGROV-1 2.23 µM | KM12 1.57 µM | M14 1.68 µM | MDA-MB-231 2.45 µM | MDA-MB-435 1.95 µM | MDA-N 2.38 µM | Malme-3M 2.55 µM | NCI-H226 3.06 µM | NCI-H23 1.69 µM | NCI-H460 5.36 µM | NCI/ADR-RES 2.12 µM | OVCAR-3 1.6 µM | OVCAR-4 2.8 µM | OVCAR-5 2.25 µM | OVCAR-8 1.58 µM | PC-3 6.04 µM | SF-268 4.26 µM | SF-295 3.84 µM | SF-539 3 µM | SK-MEL-28 3.15 µM | SK-MEL-2 4.31 µM | SK-MEL-5 3.69 µM | SK-OV-3 10.3 µM | SN12C 2.14 µM | SNB-19 3.36 µM | SNB-75 4.12 µM | TK-10 1.95 µM | U-251 1.5 µM | UACC-257 4.29 µM | UACC-62 3.3 µM | UO-31 1.5 µM

O=[N+]([O-])c1ccc(C2=NOC(c3ccccc3F)N2C23CC4CC(CC(C4)C2)C3)cc1 (stereo not given)
inactive: 786-0 > 100 µM | A498 > 100 µM | A549 > 100 µM | ACHN > 100 µM | BT-549 > 100 µM | CAKI-1 > 100 µM | CCRF-CEM > 100 µM | COLO 205 > 100 µM | DU-145 > 100 µM | EKVX > 100 µM | HCC 2998 > 100 µM | HCT-116 > 100 µM | HL-60 25.9 µM | HOP-62 > 100 µM | HOP-92 7.43 µM | HT-29 > 100 µM | Hs-578T > 100 µM | IGROV-1 > 100 µM | K562 > 100 µM | KM12 > 100 µM | LOX IMVI > 100 µM | M14 > 100 µM | MCF7 > 100 µM | MDA-MB-231 > 100 µM | MDA-MB-435 > 100 µM | MDA-N > 100 µM | MOLT-4 > 100 µM | Malme-3M > 100 µM | NCI-H226 > 100 µM | NCI-H23 > 100 µM | NCI-H460 > 100 µM | NCI-H522 > 100 µM | NCI/ADR-RES > 100 µM | OVCAR-3 > 100 µM | OVCAR-4 > 100 µM | OVCAR-5 > 100 µM | OVCAR-8 > 100 µM | PC-3 > 100 µM | RPMI-8226 98.9 µM | SF-268 > 100 µM | SF-295 > 100 µM | SF-539 > 100 µM | SK-MEL-28 > 100 µM | SK-MEL-2 > 100 µM | SK-MEL-5 > 100 µM | SK-OV-3 > 100 µM | SN12C > 100 µM | SNB-75 > 100 µM | SR > 100 µM | SW-620 > 100 µM | T47D > 100 µM | TK-10 > 100 µM | U-251 > 100 µM | UACC-257 > 100 µM | UACC-62 > 100 µM | UO-31 > 100 µM
> 100 µM: HCT-15

CC1(C)C(=O)C(C)(C)C12SSC1(S2)C(C)(C)C(=O)C1(C)C
inactive: 786-0 > 100 µM | A498 > 100 µM | A549 64.9 µM | ACHN > 100 µM | BT-549 > 100 µM | CAKI-1 > 100 µM | COLO 205 67 µM | DU-145 > 100 µM | EKVX > 100 µM | HCC 2998 > 100 µM | HCT-116 > 100 µM | HL-60 2.41 µM | HOP-62 > 100 µM | HOP-92 > 100 µM | HT-29 > 100 µM | Hs-578T > 100 µM | IGROV-1 > 100 µM | K562 > 100 µM | KM12 > 100 µM | LOX IMVI > 100 µM | M14 > 100 µM | MCF7 > 100 µM | MDA-MB-231 > 100 µM | MDA-MB-435 > 100 µM | MDA-N > 100 µM | MOLT-4 71.4 µM | Malme-3M 48.2 µM | NCI-H226 42.6 µM | NCI-H23 > 100 µM | NCI-H460 > 100 µM | NCI/ADR-RES 77.1 µM | OVCAR-3 > 100 µM | OVCAR-4 > 100 µM | OVCAR-5 > 100 µM | OVCAR-8 > 100 µM | PC-3 84.5 µM | RPMI-8226 65.9 µM | SF-268 > 100 µM | SF-295 > 100 µM | SF-539 > 100 µM | SK-MEL-28 > 100 µM | SK-MEL-2 > 100 µM | SK-MEL-5 > 100 µM | SK-OV-3 > 100 µM | SN12C > 100 µM | SNB-19 > 100 µM | SNB-75 > 100 µM | SR > 100 µM | SW-620 > 100 µM | T47D > 100 µM | TK-10 > 100 µM | U-251 > 100 µM | UACC-257 > 100 µM | UACC-62 > 100 µM | UO-31 > 100 µM
> 100 µM: HCT-15
